Assay [1] addresses T1, interaction between glucokinase (GK) and glucokinase regulatory protein (GKRP) (Homo sapiens, UniProt Q14397).
T1 sequence (Q14397 1-625): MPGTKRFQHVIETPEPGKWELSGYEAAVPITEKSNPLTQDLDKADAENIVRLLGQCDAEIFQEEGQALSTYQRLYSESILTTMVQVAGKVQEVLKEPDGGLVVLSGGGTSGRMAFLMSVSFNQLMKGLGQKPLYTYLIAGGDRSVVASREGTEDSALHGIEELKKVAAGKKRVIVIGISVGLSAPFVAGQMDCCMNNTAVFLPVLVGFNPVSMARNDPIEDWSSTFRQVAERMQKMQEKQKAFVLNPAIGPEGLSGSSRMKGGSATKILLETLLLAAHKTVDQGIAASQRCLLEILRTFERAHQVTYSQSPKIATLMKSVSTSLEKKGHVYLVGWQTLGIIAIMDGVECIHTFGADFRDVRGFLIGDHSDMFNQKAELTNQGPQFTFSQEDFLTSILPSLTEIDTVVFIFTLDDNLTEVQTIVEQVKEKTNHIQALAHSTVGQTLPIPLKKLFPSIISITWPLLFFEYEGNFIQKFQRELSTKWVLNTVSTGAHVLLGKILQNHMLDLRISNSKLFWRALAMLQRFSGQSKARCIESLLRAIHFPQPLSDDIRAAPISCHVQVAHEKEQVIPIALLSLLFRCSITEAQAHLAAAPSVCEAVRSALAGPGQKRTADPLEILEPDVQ
Kind of assay: biochemical. Format: binding. How it is done:
GK-GKRP Binding Assay Protocol
This assay is used to directly measure the interaction between glucokinase (GK) and glucokinase regulatory protein (GKRP). Begin by preparing the following solutions. Assay Buffer: 20 mM Tris, pH 7.5/0.05% BSA/1 mM DTT/1 μM sorbitol-6-phosphate. […] Combine the following reagents in a white 96-well half area plate. Pipette 14 μl of the diluted avi-tagged GKRP into each well. Add 1 μl of compound to be tested and incubate at room temperature for 20 minutes. After 20 minutes, add 5 μl of assay buffer containing 6 nM GK-fluorescein. […] Incubate in a dark room for 2 hours at room temperature. After 2 hours read the plate using an Envision plate reader (Perkin Elmer, Waltham Mass.).

In assay [2] the target is T2, GKRP (Glucokinase Regulatory Protein) with human His-hepatic GK (Homo sapiens, UniProt Q14397).
T2 sequence (Q14397 1-625): T1 sequence (Q14397 1-625)
Description: biochemical. How it is done:
GKRP LC MS/MS-2 Biochemical Assay
This assay is used to directly measure the formation of ^13C-glucose-6-phosphate from ^13C-glucose by LC MS/MS. Begin by preparing the following solutions: Compound Buffer (CB): 50 mM Tris, pH 7.5/4 mM MgCl2/6% DMSO/fresh 10 mM DTT from 1M frozen stock. Enzyme Buffer (EB): 50 mM Tris, pH 7.5/4 mM MgCl2/6% DMSO/fresh 0.1% BSA/fresh 0.01% Brij-35 (10% BSA and 1% Brij-35 stock). GK (Glucokinase) Working Stock (5×): Dilute human His-hepatic GK to 30 nM in EB buffer. […] After 30 minutes add 10 μl of GK Working Stock (5×). Re-seal the plate and incubate for another 30 minutes at room temperature while mixing. After the second 30 minutes, stop the reaction by the addition of 50 μl of 100% acetonitrile, seal, and mix for 5-10 minutes. Run 10 μl of this sample through the LC MS/MS (API 3200, Applied Biosystems, Carlsbad, Calif.).

[3] abbreviates: avi-tagged GKRP, GK-fluorescein, AlphaScreen beads, read-out: GK-GKRP IC50 (Binding).
Where [4] appears, read: 13C-glucose-6-phosphate formation, 280 nM GKRP (10×), 30 nM GK (5×), read-out: GK-GKRP EC50 (LC MS/MS-2).
[5] abbreviates: GK-GKRP EC50 (LC MS/MS-2), 13C-glucose-6-phosphate formation, 280 nM GKRP (10×), 30 nM GK (5×).

Experimental findings from patent publication US8431563B2 (priority 2010, dated 2013) are described below.

Each structure is given as a SMILES string. Like-named read-outs stand apart in the source and are kept apart here.

Take `CC(C)C1C(=O)NCCN1C[C@H]1CN(S(=O)(=O)c2cccs2)CCN1c1ccc(C(C)(O)C(F)(F)F)cc1` (single isomer, unassigned) [Example 181 Peak #2]: in assay [1] (setting [3]), the IC50 was determined as 1 nM. Besides, the EC50 in assay [2] (setting [4]) is 14 nM.
On the same counts, the results for `C[C@H]1COCCN1C[C@H]1CN(S(=O)(=O)c2cccs2)CCN1c1ncc(C(O)(C(F)(F)F)C(F)(F)F)cn1` [Example 82, 1,1,1,3,3,3-hexafluoro-2-(2-((2S)-2-(((3S)-3-methyl-4-morpholinyl)methyl)-4-(2-thiophenylsulfonyl)-1-piperazinyl)-5-pyrimidinyl)-2-propanol] are 15 nM and 26 nM.
Consider `CC(O)(c1ccc(N2CCN(S(=O)(=O)c3cccs3)C[C@@H]2CSc2cccc(F)c2)cc1)C(F)(F)F` (mixture of isomers) [Example 188, 1,1,1-trifluoro-2-(4-((2R)-2-(((3-fluorophenyl)sulfanyl)methyl)-4-(2-thiophenylsulfonyl)-1-piperazinyl)phenyl)-2-propanol], for which, in assay [1] (setting [3]), the IC50 was 112 nM. The EC50 in assay [2] (setting [4]) was determined as 43 nM.
With `CC(O)(c1ccc(N2CCN(S(=O)(=O)c3cccs3)C[C@@H]2CNc2ccccc2)cc1)C(F)(F)F` (mixture of isomers) [Example 203, 1,1,1-trifluoro-2-(4-((2S)-2-((phenylamino)methyl)-4-(2-thiophenylsulfonyl)-1-piperazinyl)phenyl)-2-propanol], the IC50 in assay [1] (GK-GKRP IC50 (Binding)) is 278 nM. Besides, in assay [2] (GK-GKRP EC50 (LC MS/MS-2)), the EC50 worked out at 146 nM.
For `CC1(C)C(=O)NCCN1C[C@H]1CN(S(=O)(=O)c2cccs2)CCN1c1ccc(C(C)(O)C(F)(F)F)cc1` (single isomer, unassigned) [Example 180 Peak #1], the half-inhibitory concentration (IC50) in assay [1] (setting [3]) stood at 11 nM. Also, the EC50 in assay [2] (setting [4]) worked out at 40 nM.
On the same counts, the results for `CC(O)(c1ccc(N2CCN(S(=O)(=O)c3cccs3)C[C@@H]2CN2C3COCC2C(O)C3)cc1)C(F)(F)F` (single isomer, unassigned; peak #1) [Example 77 Peak #1] are 13 nM and 38 nM.
On the same counts, the results for `CC(O)(c1ccc(N2CCN(S(=O)(=O)c3cccs3)C[C@@H]2CN2C3COCC2C(O)C3)cc1)C(F)(F)F` (stereo partly drawn) [Example 78, 8-(((2S)-4-(2-thiophenylsulfonyl)-1-(4-(2,2,2-trifluoro-1-hydroxy-1-methylethyl)phenyl)-2-piperazinyl)methyl)-3-oxa-8-azabicyclo[3.2.1]octan-6-ol] are 42 nM and 50 nM.
Take `CC1(COC[C@H]2CN(S(=O)(=O)c3cccs3)CCN2c2ccc(C(C)(O)C(F)(F)F)cc2)COC1` (mixture of isomers) [Example 117, 1,1,1-trifluoro-2-(4-((2R)-2-(((3-methyl-3-oxetanyl)methoxy)methyl)-4-(2-thiophenylsulfonyl)-1-piperazinyl)phenyl)-2-propanol]: in assay [1] (setting [3]), the IC50 came out at 467 nM. In assay [2] (setting [4]), the EC50 stood at 463 nM.
As for `CC(O)(c1ccc(N2CCN(S(=O)(=O)c3ccc(N)s3)CC2)cc1)C(F)(F)F` (racemic) [Example 90, 2-(4-(4-((5-amino-2-thiophenyl)sulfonyl)-1-piperazinyl)phenyl)-1,1,1-trifluoro-2-propanol], the IC50 in assay [1] (setting [3]) was found to be 448 nM. The EC50 in assay [2] (setting [4]) stood at 836 nM.
On the same counts, the results for `C[C@H]1COCCN1C[C@H]1CN(S(=O)(=O)c2cccs2)CCN1c1ccc(C(O)(CO)C(F)(F)F)cc1` (single isomer, unassigned) [Example 83 Peak #2] are 22 nM and 16 nM.
Turning to `CC(O)(c1ccc(N2CCN(S(=O)(=O)c3cccs3)C[C@@H]2CN2[C@@H]3COC[C@H]2CC(=O)C3)cc1)C(F)(F)F` (stereo partly drawn) [Example 106, 9-(((2S)-4-(2-thiophenylsulfonyl)-1-(4-(2,2,2-trifluoro-1-hydroxy-1-methylethyl)phenyl)-2-piperazinyl)methyl)-3-oxa-9-azabicyclo[3.3.1]nonan-7-one], the 50% inhibitory concentration (IC50) in assay [1] (setting [3]) is 35 nM. In addition, the EC50 in assay [2] (setting [4]) was 97 nM.
`COc1ccccc1CC1CN(S(=O)(=O)c2cccs2)CCN1c1ccc(C(O)(C(F)(F)F)C(F)(F)F)cc1` (racemic) [Example 174, 1,1,1,3,3,3-hexafluoro-2-(4-(2-(2-methoxybenzyl)-4-(thiophen-2-ylsulfonyl)piperazin-1-yl)phenyl)-2-propanol]: in assay [1] (setting [3]), the half-maximal inhibitory concentration (IC50) came to 167 nM. The EC50 in assay [2] (setting [4]) was found to be 114 nM.
On the same counts, the results for `CC(O)(c1ccc(N2CCN(S(=O)(=O)c3cccs3)C[C@@H]2CN(C2COC2)S(C)(=O)=O)cc1)C(F)(F)F` (mixture of isomers) [Example 207, N-3-oxetanyl-N-(((2R)-4-(2-thiophenylsulfonyl)-1-(4-(2,2,2-trifluoro-1-hydroxy-1-methylethyl)phenyl)-2-piperazinyl)methyl)methanesulfonamide] are 241 nM and 257 nM.
On the same counts, the results for `COCC#Cc1cc(C(O)(C(F)(F)F)C(F)(F)F)ccc1N1CCN(S(=O)(=O)c2cccs2)CC1` [Example 153, 1,1,1,3,3,3-hexafluoro-2-(3-(3-methoxyprop-1-YNYL)-4-(4-(thiophen-2-ylsulfonyl)piperazin-1-yl)phenyl)propan-2-ol] are 363 nM and 675 nM.
Consider `CC(C)N(C[C@H]1CN(S(=O)(=O)c2ccc(N)nc2)CCN1c1ncc(C(O)(C(F)(F)F)C(F)(F)F)cn1)S(C)(=O)=O` [Example 232, N-(((2R)-4-((6-amino-3-pyridinyl)sulfonyl)-1-(5-(2,2,2-trifluoro-1-hydroxy-1-(trifluoromethyl)ethyl)-2-pyrimidinyl)-2-piperazinyl)methyl)-N-(1-methylethyl)methanesulfonamide], for which the IC50 in assay [1] (setting [3]) is 35 nM. In addition, in assay [2] (setting [4]), the EC50 amounted to 63 nM.
On to `CCOC(=O)CC1COCCN1C[C@H]1CN(S(=O)(=O)c2cccs2)CCN1c1ccc(C(C)(O)C(F)(F)F)cc1` (mixture of isomers) [Example 113], for which the IC50 in assay [1] (setting [3]) came to 333 nM. In addition, the EC50 in assay [2] (setting [4]) came to 308 nM.
In assay [1] (GK-GKRP IC50 (Binding), avi-tagged GKRP, GK-fluorescein, AlphaScreen beads), `CC(O)(c1ccc(N2CCN(S(=O)(=O)c3cccs3)C[C@@H]2CN2C3CCCC2CC(=O)C3)cc1)C(F)(F)F` (mixture of isomers) [Example 140, 9-(((2S)-4-(2-thiophenylsulfonyl)-1-(4-(2,2,2-trifluoro-1-hydroxy-1-methylethyl)phenyl)-2-piperazinyl)methyl)-9-azabicyclo[3.3.1]nonan-3-one] yielded a half-inhibitory concentration (IC50) of 7 nM. This compound also gave an EC50 in assay [2] (setting [5]) of 15 nM.
Consider `Nc1ccc(S(=O)(=O)N2CCN(c3ncc(C(O)(C(F)(F)F)C(F)(F)F)cn3)[C@@H](CC3CCOCC3)C2)s1` [Example 133, 2-(2-((2S)-4-((5-amino-2-thiophenyl)sulfonyl)-2-(tetrahydro-2H-pyran-4-ylmethyl)-1-piperazinyl)-5-pyrimidinyl)-1,1,1,3,3,3-hexafluoro-2-propanol], for which the concentration for half-maximal inhibition (IC50) in assay [1] (setting [3]) was 47 nM. The EC50 in assay [2] (setting [5]) is 59 nM.
Turning to `O=S(=O)(c1cccs1)N1CCN(c2ncc(C(O)(C(F)(F)F)C(F)(F)F)cn2)[C@@H](CC2CCOCC2)C1` [Example 134, 1,1,1,3,3,3-hexafluoro-2-(2-((2S)-2-(tetrahydro-2H-pyran-4-ylmethyl)-4-(2-thiophenylsulfonyl)-1-piperazinyl)-5-pyrimidinyl)-2-propanol], in assay [1] (setting [3]), the IC50 was found to be 122 nM. Besides, the EC50 in assay [2] (setting [4]) stood at 79 nM.
As to `CC(O)(c1ccc(N2CCN(S(=O)(=O)c3cccs3)C[C@@H]2COCc2ccco2)cc1)C(F)(F)F` (mixture of isomers) [Example 116, 1,1,1-trifluoro-2-(4-((2R)-2-((2-furanylmethoxy)methyl)-4-(2-thiophenylsulfonyl)-1-piperazinyl)phenyl)-2-propanol], the half-maximal inhibitory concentration (IC50) in assay [1] (setting [3]) was 284 nM. Moreover, in assay [2] (setting [4]), the EC50 was determined as 103 nM.

Usually IC50 stands for the point on the concentration scale where inhibition reaches its midpoint.
